Measured values from patent US6485743B1, “Method and composition of an oral preparation of itraconazole” (Choongwae Pharma Corporation, priority 1997, dated 2002).

What was measured:
[1] = Comparative test of solubility of the solid dispersions in polymer; format: physicochemical; details: simulated gastric fluid, thermodynamic from solid, simulated gastric juice (pH 1.2), 25° C., itraconazole:hydrophilic polymer=1:1.5 (w/w), n=3, Average ± Standard deviation
[2] = cited from earlier work
[3] = pH 8.1 aqueous buffer/n-octanol system; cited from earlier work

- solubility at 24 h [1]: 1.38 ± 0.11 µg/mL
SMILES: CCC(C)n1ncn(-c2ccc(N3CCN(c4ccc(OCC5COC(Cn6cncn6)(c6ccc(Cl)cc6Cl)O5)cc4)CC3)cc2)c1=O (mixture of isomers) [itraconazole, (±)-cis-4-[4-[4-[4-[[2-(2,4-dichlorophenyl)-2-(1H-1,2,4-triazol-1-ylmethyl)-1,3-dioxolan-4-yll]methoxy]phenyl]-1-piperazinyl]phenyl]-2,4-dihydro-2-(1-methylpropyl)-3H-1,2,4-triazol-3-one]
- solubility in diluted acidic solution ([2]; diluted acidic solution): less than 5 μg/ml
- solubility in water ([2]; water): less than 1 μg/ml
- oil/water partition coefficient [3]: 5.66
